# Experimental data taken from US6649615B2, “Method for inhibiting fibrogenesis” (Institute National de la Sante et de la Recherche Medicale …, priority 2002, dated 2003).
# Values joined by “and” are separate entries in the source; they are usually repeats but may differ in a detail not shown here. Equal values may be shown once. “Also recorded” adds a separate entry of the source.
# What was measured:
# [1] = test system: CCl4-induced hepatocyte necrosis; test: Acute toxicity of CCl4: liver function tests and area of necrosis; details: for effect on the acute toxicity of CCl4 (biological tests and necrosis area): co-treatment with CCl4 vs CCl4 alone
# Procedure: Routine liver function blood tests (bilirubin, alkaline phosphatase and transaminases) were performed on an automated analyzer.
# Thus, groups of animals treated with 2 administrations of CCl4 with or without 2 injections of OHDA were sacrificed 24 hours after the second CCl4 treatment and evaluated for acute toxicity of CCl4 by serum tests and measurement of the area of necrosis on liver sections.
# The percentage of necrosis area was determined on hematoxylin and eosin stained sections by image analysis.
# [2] = Vital parameters and liver function tests after 2 weeks of treatment; assay type: in vivo, rat; details: for Bilirubin / ALAT / ASAT / Alkaline phosphatase / LW/BW ratio (X100) / Liver weight / Body weight: 2 weeks; for Bilirubin / ALAT / ASAT / Alkaline phosphatase: serum
# Procedure: (§1) All experiments were carried out using accepted ethical guidelines. Male Wistar rats (Charles River, St Aubin-les-Elbeuf, France) weighing 200-250 g were used in this study. The animals had free access to food and drinking water. Fibrosis was induced by giving CCl4 (Sigma, St Quentin-Fallavier, France) mixed with olive oil (1vol: 5vol.) at 0.375 ml/kg body weight by gavage, three times a week, on Monday, Wednesday and Friday. Control animals for CCl4 received only olive oil.
# (§2) Sympathetic chemical denervation was performed with OHDA (Sigma). OHDA was freshly prepared in saline containing 0.4% (w/v) ascorbic acid (Sigma). OHDA was administered intraperitoneally, twice a week on 2 consecutive days (Monday and Tuesday) at the dose of 25 mg/kg body weight. The first injection was given 4 to 6 hours before the first administration of CCl4. Control animals for OHDA received only the solvent.
# (§3) Thus, 4 groups including each 6 animals could be distinguished. Group I: olive oil and saline alone; group II: olive oil and OHDA alone; group III: CCl4 with saline; group IV: CCl4 with OHDA. These animals were treated for 2 weeks. In another series of experiments, animals were similarly treated for 6 weeks. In that case, both control groups included only 3 animals.
# Serum samples were also collected.
# TIMP-1 mRNA = test: Liver TIMP-1 mRNA by Northern blot (TIMP-1/GAPDH ratio); assay type: in vivo, rat
# Procedure: […] The blot was then stripped and rehybridized with a rat GAPDH (glyceraldehyde-3-phosphate dehydrogenase) probe.
# […] of total RNA extracted from rat liver was analyzed by Northern blot. RNAs were separated on a 0.8% agarose gel containing ethidium bromide in MOPS buffer. Running buffer and gel contained 0.2 M formaldehyde. The RNAs were transferred onto a positively charged nylon membrane (Amersham, Orsay, France) by downward capillary transfer in running buffer. Examination of the stained membrane under UV light was used to confirm the quality of loading and transfer. A rat TIMP-1 cDNA probe was labeled with [α^32P]dCTP by random priming using the Ready-to-go kit from Roche (Meylan, France). Hybridization was performed using the Ultrahyb solution (Ambion, Austin, Tex.). The blots were washed in stringent conditions (0.1×SSC, 0.1% SDS at 65° C.). To further confirm the loading and transfer accuracy, blots were rehybridized with a rat GAPDH cDNA probe (Fort et al., 1985). The signals were quantified with the Kodak 1 D Image Analysis Software (Eastman Kodak Company, Rochester, N.Y.). Results are presented as TIMP-1/GAPDH ratios.
# [3] = test system: liver norepinephrin stores; test: Liver catecholamine (norepinephrin) content by HPLC with electrochemical detection; assay type: in vivo, rat; details: for Norepinephrin content in liver: 2 weeks, mean ± 1 SD; for decrease in the liver norepinephrin content: OHDA 2 weeks
# Procedure: as §2, §3
# Extraction was performed on liver homogenates (10% w/v, in 0.05 M ice-cold Tris-HCl buffer at pH 7.4) according to the method of Smedes et al. using […] as internal standard (Smedes et al., 1982). Extracts were analyzed by HPLC with electrochemical detection.
# [4] = test system: CCl4-induced liver fibrosis; test: CCl4-induced liver fibrosis in rats, fibrosis area by Picro Sirius red image analysis; assay type: in vivo, rat; details: for area of fibrosis (% of field area): control 0.63±0.06%
# Procedure: as §1, §2, §3
# Finally, other animals were treated with the specific α1-adrenergic receptor antagonist prazosin (Sigma), given in drinking water daily at a dose of 50 mg/l during 2 weeks. Group V animals received CCl4 alone, while group VI received CCl4 with prazosin. Both groups included 6 animals.
# At the designated time points, the animals were sacrificed. Liver samples were taken from several lobes and either snap frozen in liquid nitrogen, cryopreserved in OCT compound (Sakura, Torrance, Calif.) and snap-frozen in liquid nitrogen-cooled isopentane, or fixed in buffered formalin.
# This was done on formalin-fixed, paraffin-embedded sections stained with Picro Sirius red, using image analysis. All samples from a series of experiments were stained simultaneously. Quantitative data were obtained using a computerized image analysis system (Biocom 500, Les Ulis, France) including a personal computer (DESK PRO, Compaq, Houston, Tex.), a CCD video camera (Sony, Japan) and a Zeiss microscope (Jena, Germany). Sampling corresponded to 3 sections from 3 different lobes. The analysis was performed on an average of 50 fields per section using the ×4 objective. The whole surface of the sections was used for analysis with the exception of large centrolobular veins (diameter ≧150 μm) and large portal tracts. Fibrosis deposition was expressed as a percentage of stained areas on the total measured area.
# Interassay variation was calculated in preliminary experiments and found to be 1.4%. When the percentage of reduction in areas of fibrosis consecutive to treatments was calculated, control values were first substracted.
# type I collagen mRNA = test: Liver type I collagen transcripts (quantitative RT-PCR, in situ hybridization); assay type: in vivo, rat
# Procedure: In situ hybridization was performed on frozen sections according to a protocol described earlier, using [α^33P]UTP labeled riboprobes (Faouzi et al., 1999). The probe used was a 900 bp fragment of the rat α2(I) collagen cDNA, (Genovese et aL, 1984). The cDNA was subcloned into the pGEM5Z f(+) vector. Antisense and sense probes were generated by in vitro transcription. Their size was reduced to ˜250 nt by alkaline hydrolysis.
# Total RNA was prepared from liver samples by the method of Chomczynski and Sacchi (1987), modified as described by Puissant and Houdebine (1990).
# Type I collagen specific transcripts were quantified by a technique of quantitative RT-PCR, that has previously been described in detail (Bieche et al., 2000). Each sample was normalized on the basis of its expression of the RPLPO gene (also known as 36B4, encoding human acidic ribosomal phosphoprotein P0).
# HSC-T6 = test: Hepatic stellate cell proliferation assay (tetrazolium dye reduction); assay type: cell-based, rat
# Procedure: FIG. 3: Effect of norepinephrin on hepatic stellate cell (HSC) proliferation. Cells were exposed to increasing concentrations of norepinephrin for 2 days. Cell number was evaluated through the measurement of the reduction of the dye 3-(4,5-dimethylthiazol-2yl)-2,5 diphenyltetrazolium.
# FIG. 4: Effect of prazosin on hepatic stellate cell proliferation induced by norepinephrin Cells were exposed to increasing concentrations of prazosin, either alone (open symbols), or in the presence of 100 nM norepinephrin (closed symbols). Cell number was evaluated through the measurement of the reduction of the dye 3-(4,5-dimethylthiazol-2yl)-2,5 diphenyltetrazolium. The marginal proliferation index was calculated as: (ODexperimental sample—ODday 0)/(ODcontrol—ODday 0), where OD is the optical density measured at the end of the experiment.
# The inventors used an established rat HSC cell line, named HSC-T6.
# Cells were exposed to increasing concentrations of norepinephrin for 2 days. In some experiments, cells were also exposed to increasing concentrations of prazosin. Cell number was evaluated through the measurement of the reduction of the dye 3-(4,5-dimethylthiazol-2yl)-2,5 diphenyltetrazolium.
smiles,measurement,setting,value
"NCCc1cc(O)c(O)cc1O [OHDA, 6-hydroxydopamine]",Necrosis area,"[1]; CCl4 + OHDA, 96 hs, hematoxylin and eosin sections, CCl4 alone 4.6 ± 2.3",3.3 ± 1.0%
same,ALAT,"[1]; CCl4 + OHDA, 96 hs, CCl4 alone 269 ± 117",221 ± 71 IU.I^−1
same,Alkaline phosphatase,"[1]; CCl4 + OHDA, 96 hs, CCl4 alone 314 ± 111",240 ± 117 IU.I^−1
same,ASAT,"[1]; CCl4 + OHDA, 96 hs, CCl4 alone 452 ± 152",342 ± 62 IU.I^−1
same,effect on the acute toxicity of CCl4 (biological tests and necrosis area),[1],no statistically significant difference
same,Bilirubin,"[2]; CCl4 with OHDA (group IV), CCl4 alone 3.2 ± 0.7",5.0 ± 1.4 μM.I^−1
same,ALAT,"[2]; CCl4 with OHDA (group IV), CCl4 alone 130 ± 98",97 ± 37 IU.I^−1
same,ASAT,"[2]; CCl4 with OHDA (group IV), CCl4 alone 173 ± 82",137 ± 29 IU.I^−1
same,Alkaline phosphatase,"[2]; CCl4 with OHDA (group IV), CCl4 alone 276 ± 53",225 ± 58 IU.I^−1
same,LW/BW ratio (X100),"[2]; CCl4 with OHDA (group IV), CCl4 alone 4.6 ± 0.7",4.1 ± 0.6
same,Liver weight,"[2]; CCl4 with OHDA (group IV), CCl4 alone 13.7 ± 1.7",12.5 ± 1.0 g
same,Body weight,"[2]; CCl4 with OHDA (group IV), CCl4 alone 298 ± 12",293 ± 6 g
same,gross toxic effects of prolonged treatment,[2]; OHDA alone (group II),No gross toxic effects
same,histologic aspect of the livers,[2]; OHDA alone (group II),strictly normal
same,Bilirubin,"[2]; OHDA alone (group II), saline 4.5 ± 1.4",2.3 ± 0.5 μM.I^−1
same,ALAT,"[2]; OHDA alone (group II), saline 43 ± 4",50 ± 6 IU.I^−1
same,ASAT,"[2]; OHDA alone (group II), saline 120 ± 9",94 ± 18 IU.I^−1
same,Alkaline phosphatase,"[2]; OHDA alone (group II), saline 178 ± 48",274 ± 46 IU.I^−1
same,LW/BW ratio (X100),"[2]; OHDA alone (group II), saline 3.7 ± 0.2",4.4 ± 0.2
same,Liver weight,"[2]; OHDA alone (group II), saline 12.9 ± 1.0",16.0 ± 1.1 g
same,Body weight,"[2]; OHDA alone (group II), saline 344 ± 17",365 ± 14 g
same,effect on CCl4-induced increase of liver TIMP-1 mRNA (TIMP-1/GAPDH ratio),"TIMP-1 mRNA; CCl4 with OHDA (group IV), 2 weeks",abrogated; also recorded: normalization of the TIMP-1/GAPDH ratio back to control values
same,effect on CCl4-induced increase of liver TIMP-1 mRNA,"TIMP-1 mRNA; CCl4 with OHDA, 6 weeks",greatly reduced
same,reduction in the TIMP-1/GAPDH ratio,"TIMP-1 mRNA; CCl4 with OHDA, 6 weeks, all animals, not statistically significant",45%
same,reduction in the TIMP-1/GAPDH ratio,"TIMP-1 mRNA; CCl4 with OHDA, 6 weeks, one animal with very high value removed, p=0.05",57%
same,Norepinephrin content in liver,"[3]; CCl4 + OHDA (group IV), CCl4 alone group III 29.1 ± 10.6",3.6 ± 1.5 ng/g of wet liver tissue
same,decrease in the liver norepinephrin content,[3]; CCl4-treated animals,87.6%
same,Norepinephrin content in liver,"[3]; OHDA alone (group II), 25 mg/kg i.p. twice a week, saline group I 47.6 ± 9.9",6.0 ± 3.2 ng/g of wet liver tissue
same,decrease in the liver norepinephrin content,[3]; non CCl4-treated animals,87.4%
same,area of fibrosis (% of field area),"[4]; CCl4 with OHDA (group IV), 2 weeks, CCl4 alone 2.86±0.78%",1.54±0.29%
same,area of fibrosis,"[4]; CCl4 with OHDA, 6 weeks, CCl4 alone 18.82±1.79%",12.38±1.89%
same,area of fibrosis (% of field area),"[4]; OHDA alone (group II), 2 weeks",0.61±0.08%
same,area of fibrosis,"[4]; OHDA alone, 6 weeks",0.47±0.03%
same,reduction in the area of fibrosis,"[4]; OHDA with CCl4 vs CCl4 alone, 2 weeks, control values subtracted",60% and 60.2%
same,decrease of fibrosis area,"[4]; OHDA with CCl4 vs CCl4 alone, 6 weeks",36%
same,type I collagen mRNA level (quantitative RT-PCR),"type I collagen mRNA; CCl4 together with OHDA, 6 weeks, CCl4 alone 477.2±91.0, control 16.0±5.9",364.5±68.7 arbitrary units
same,decrease in type I collagen mRNA level,"type I collagen mRNA; CCl4 with OHDA vs CCl4 only, 6 weeks",24%
"COc1cc2nc(N3CCN(C(=O)c4ccco4)CC3)nc(N)c2cc1OC [prazosin, 1-(4-amino-6,7-dimethoxy-2-quinazolinyl)-4-(2-furanylcarbonyl) piperazine]",effect on the acute toxicity of CCl4 (biological tests and necrosis area),[1],did not decrease
same,effect on mitogenic effect of norepinephrin on HSC-T6,"HSC-T6; in the presence of 100 nM norepinephrin, 3 independent experiments in quadruplicate",abolished
same,effect on HSC-T6 proliferation alone,HSC-T6; without norepinephrin,no effect
same,fibrosis area (histomorphometry),"[4]; CCl4 with prazosin 50 mg/l in drinking water (group VI), 2 weeks, CCl4 alone 2.35±0.41%",0.89±0.21%
same,decrease in fibrosis area,"[4]; prazosin with CCl4 vs CCl4 alone, 2 weeks",83%
same,type I collagen transcripts by in situ hybridization,"type I collagen mRNA; CCl4 with prazosin, 2 weeks",large decrease in transcripts
